Reference: US11912701B2, “Protein kinase inhibitors for promoting liver regeneration or reducing or preventing hepatocyte death” (HEPAREGENIX GMBH, priority 2018, dated 2024)

Tests used:
[1] = target: T1, MKK4 (Homo sapiens, UniProt P45985); experiment: KINOMEscan competition binding assay, MKK4; conditions: residual percent of control binding (PoC) at 100 nM
T1 construct: S84/D399; host or cells: HEK-293
T1 sequence (P45985 84-399): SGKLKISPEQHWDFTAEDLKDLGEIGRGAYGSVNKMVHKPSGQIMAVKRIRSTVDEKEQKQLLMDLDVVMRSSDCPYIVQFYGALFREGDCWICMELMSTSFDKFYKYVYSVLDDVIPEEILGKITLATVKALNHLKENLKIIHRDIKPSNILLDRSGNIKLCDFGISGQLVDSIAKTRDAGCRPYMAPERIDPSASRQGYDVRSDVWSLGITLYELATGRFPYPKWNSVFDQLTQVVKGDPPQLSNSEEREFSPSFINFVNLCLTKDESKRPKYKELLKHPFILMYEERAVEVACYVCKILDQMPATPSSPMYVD
Method in brief: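 Tested at 100 nM and reported as percent of control binding (PoC). MKK4 was produced in HEK-293 cells and DNA-tagged. Displacement from ligand-coated, blocked beads was read by qPCR of eluted kinase.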

[2] = target: T2, BRaf (Homo sapiens, UniProt P15056); experiment: KINOMEscan competition binding assay, BRaf; conditions: ratio PoC (off-target)/PoC (MKK4)
T2 construct: purchased ProQinase GmbH, Freiburg, Germany (33PanQinase Assay Service)
Method in brief: (§1)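 DNA-tagged kinases expressed in HEK-293 cells compete between immobilized ligand on blocked beads and test compound at 100 nM; kinase retained on beads quantified by qPCR of the tag.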

[3] = target: T3, MKK4 (Homo sapiens, UniProt P45985); experiment: 33PanQinase enzyme assay, MKK4; type: biochemical; conditions: assay 'IC50'; read-out: Potency MKK4 (IC50)
T3 construct: purchased ProQinase GmbH, Freiburg, Germany (33PanQinase Assay Service)
T3 sequence (P45985 1-399): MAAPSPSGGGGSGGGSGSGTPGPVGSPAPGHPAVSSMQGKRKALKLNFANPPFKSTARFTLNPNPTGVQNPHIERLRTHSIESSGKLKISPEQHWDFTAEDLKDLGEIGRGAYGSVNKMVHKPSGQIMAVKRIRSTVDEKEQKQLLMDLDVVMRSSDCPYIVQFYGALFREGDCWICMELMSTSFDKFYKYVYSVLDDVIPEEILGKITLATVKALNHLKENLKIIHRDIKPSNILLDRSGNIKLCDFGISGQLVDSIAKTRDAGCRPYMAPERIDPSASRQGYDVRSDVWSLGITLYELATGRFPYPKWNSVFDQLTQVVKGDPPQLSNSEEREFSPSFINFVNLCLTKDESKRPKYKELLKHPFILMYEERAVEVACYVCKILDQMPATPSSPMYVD
Method in brief: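 Inhibition measured as 33Pi transfer to substrate after a 60-min, 30 °C reaction, acid-stopped and scintillation-counted.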

[4] = target: T2, BRaf; experiment: 33PanQinase enzyme assay, BRaf; type: biochemical; conditions: ratio IC50(BRaf)/IC50(MKK4)
Method in brief: (§2)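 33Pi incorporation, read by microplate scintillation counting, measured kinase activity after 60 min at 30 °C. Reactions were quenched with 2% (v/v) H3PO4 and washed with 0.9% NaCl. IC50 derived by least-squares fitting; single doses reported as % residual activity.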

[5] = target: T4, MKK7 (Homo sapiens, UniProt O14733); experiment: KINOMEscan competition binding assay, MKK7; set-up: M1/R419; host or cells: HEK-293; conditions: ratio PoC (off-target)/PoC (MKK4)
T4 sequence (O14733 1-419): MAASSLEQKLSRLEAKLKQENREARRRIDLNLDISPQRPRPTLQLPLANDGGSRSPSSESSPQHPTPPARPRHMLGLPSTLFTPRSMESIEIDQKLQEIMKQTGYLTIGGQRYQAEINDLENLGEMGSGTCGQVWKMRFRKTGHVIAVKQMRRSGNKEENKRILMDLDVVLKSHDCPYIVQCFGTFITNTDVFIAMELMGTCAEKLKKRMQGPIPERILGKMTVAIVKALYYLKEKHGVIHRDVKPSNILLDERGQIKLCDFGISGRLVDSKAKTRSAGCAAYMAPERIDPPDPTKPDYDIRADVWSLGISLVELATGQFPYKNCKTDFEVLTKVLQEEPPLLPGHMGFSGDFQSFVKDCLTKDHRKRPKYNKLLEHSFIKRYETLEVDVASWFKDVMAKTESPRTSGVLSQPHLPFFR
Method in brief: as §1

[6] = target: T5, JNK1 (Homo sapiens, UniProt P45983); experiment: KINOMEscan competition binding assay, JNK1; set-up: M1/Q384; host or cells: HEK-293; conditions: ratio PoC (off-target)/PoC (MKK4)
Method in brief: as §1
Target sequence in this assay (P45983 1-384 isoform P45983-2): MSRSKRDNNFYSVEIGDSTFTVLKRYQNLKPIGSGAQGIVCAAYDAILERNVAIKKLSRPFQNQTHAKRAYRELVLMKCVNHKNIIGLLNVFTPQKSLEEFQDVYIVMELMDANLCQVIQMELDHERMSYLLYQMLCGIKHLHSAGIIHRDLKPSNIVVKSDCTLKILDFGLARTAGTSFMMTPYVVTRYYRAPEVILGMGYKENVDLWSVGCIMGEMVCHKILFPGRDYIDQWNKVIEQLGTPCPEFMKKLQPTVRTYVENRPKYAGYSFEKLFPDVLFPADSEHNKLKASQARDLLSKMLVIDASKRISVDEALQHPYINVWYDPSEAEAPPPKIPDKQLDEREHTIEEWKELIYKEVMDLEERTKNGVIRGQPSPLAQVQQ

[7] = target: T5, JNK1; experiment: 33PanQinase enzyme assay, JNK1; type: biochemical; set-up: purchased ProQinase GmbH, Freiburg, Germany (33PanQinase Assay Service); conditions: ratio IC50(JNK1)/IC50(MKK4)
Method in brief: as §2
Target sequence in this assay (P45983 whole entry): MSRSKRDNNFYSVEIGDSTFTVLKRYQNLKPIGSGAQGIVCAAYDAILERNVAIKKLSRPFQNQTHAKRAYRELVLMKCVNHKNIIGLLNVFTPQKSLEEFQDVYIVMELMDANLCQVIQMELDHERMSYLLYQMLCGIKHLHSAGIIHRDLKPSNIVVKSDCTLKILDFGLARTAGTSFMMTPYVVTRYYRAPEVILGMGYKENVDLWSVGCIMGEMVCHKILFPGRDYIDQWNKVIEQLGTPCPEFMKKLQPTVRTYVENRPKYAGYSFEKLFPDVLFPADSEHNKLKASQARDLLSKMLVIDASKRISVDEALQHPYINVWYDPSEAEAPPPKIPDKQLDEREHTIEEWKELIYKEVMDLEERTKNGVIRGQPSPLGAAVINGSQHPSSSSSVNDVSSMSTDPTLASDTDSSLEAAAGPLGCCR

[8] = target: T4, MKK7; experiment: 33PanQinase enzyme assay, MKK7; type: biochemical; set-up: purchased ProQinase GmbH, Freiburg, Germany (33PanQinase Assay Service); conditions: ratio IC50(MKK7)/IC50(MKK4)
Method in brief: as §2

T2 sequence (P15056 whole entry, species assumed): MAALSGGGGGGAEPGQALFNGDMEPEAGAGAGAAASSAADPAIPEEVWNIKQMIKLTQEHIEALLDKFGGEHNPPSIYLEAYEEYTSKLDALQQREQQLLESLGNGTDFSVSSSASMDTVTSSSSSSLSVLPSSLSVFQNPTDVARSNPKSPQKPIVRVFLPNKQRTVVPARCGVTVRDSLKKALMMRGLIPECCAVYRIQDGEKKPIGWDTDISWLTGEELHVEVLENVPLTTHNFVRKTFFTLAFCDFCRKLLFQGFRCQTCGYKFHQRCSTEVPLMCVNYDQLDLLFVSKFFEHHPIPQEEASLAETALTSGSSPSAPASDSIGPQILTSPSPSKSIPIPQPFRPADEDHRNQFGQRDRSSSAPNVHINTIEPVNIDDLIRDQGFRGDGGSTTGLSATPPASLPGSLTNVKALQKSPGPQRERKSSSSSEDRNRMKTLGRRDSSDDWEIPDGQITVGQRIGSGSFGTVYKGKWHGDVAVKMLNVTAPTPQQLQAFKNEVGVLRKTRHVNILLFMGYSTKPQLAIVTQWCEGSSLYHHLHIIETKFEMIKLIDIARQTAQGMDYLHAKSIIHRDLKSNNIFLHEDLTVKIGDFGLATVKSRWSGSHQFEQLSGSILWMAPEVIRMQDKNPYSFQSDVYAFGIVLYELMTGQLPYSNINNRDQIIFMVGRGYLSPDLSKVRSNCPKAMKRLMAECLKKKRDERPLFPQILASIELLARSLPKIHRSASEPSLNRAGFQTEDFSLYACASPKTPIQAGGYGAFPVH

| Compound | MKK4 [% Ctrl @ 100 nM [1] | selectivity based on % Ctrl @100 nM vs. Braf [2] | IC50 [3] | Selectivity Braf, IC50(off-target)/IC50(MKK4) [4] | selectivity based on % Ctrl @100 nM vs. MKK7 [5] | selectivity based on % Ctrl @100 nM vs. JNK1 [6] | Selectivity JNK1, IC50(off-target)/IC50(MKK4) [7] | Selectivity IVIKK7, IC50(off-target)/IC50(MKK4) [8] |
| --- | --- | --- | --- | --- | --- | --- | --- | --- |
| CCCS(=O)(=O)Nc1ccc(F)c(C(=O)c2c[nH]c3ncc(-c4ccc(C(F)(F)F)cc4)cc23)c1F [Example 106, N-(2,4-difluoro-3-(5-(4-(trifluoromethyl)phenyl)-1H-pyrrolo[2,3-b]pyridine-3-carbonyl)phenyl)propane-1-sulfonamide] | + (3 ≤ PoC < 30) | ◯ (3 ≥ Ratio) | 100 to 1000 nM | ◯ (3 ≥ IC50(off-target)/IC50(MKK4)) | + (10 ≥ ratio > 3) | + (10 ≥ ratio > 3) | + (10 ≥ IC50(off-target)/IC50(MKK4) > 3) | +++ (IC50(off-target)/IC50(MKK4) > 100) |
| O=C(c1c(F)ccc(NS(=O)(=O)CCC(F)(F)F)c1F)c1c[nH]c2ncc(-c3ccc(N4CCS(=O)(=O)CC4)nc3)cc12 [Example 81, N-(3-(5-(6-(1,1-dioxidothiomorpholino)pyridin-3-yl)-1H-pyrrolo[2,3-b]pyridine-3-carbonyl)-2,4-difluorophenyl)-3,3,3-trifluoropropane-1-sulfonamide] | +++ (PoC < 1) | +++ (Ratio > 100) | < 100 nM | + (10 ≥ IC50(off-target)/IC50(MKK4) > 3) | +++ (Ratio > 100) | +++ (Ratio > 100) | ++ (100 ≥ IC50(off-target)/IC50(MKK4) > 10) | +++ (IC50(off-target)/IC50(MKK4) > 100) |
| Cc1cc(F)ncc1-c1cnc2[nH]cc(C(=O)c3ccc(F)c(NS(=O)(=O)CCC(F)(F)F)c3F)c2c1 [Example 157, N-(2,6-difluoro-3-(5-(6-fluoro-4-methylpyridin-3-yl)-1H-pyrrolo[2,3-b]pyridine-3-carbonyl)phenyl)-3,3,3-trifluoropropane-1-sulfonamide] | +++ (PoC < 1) | +++ (Ratio > 100) | < 100 nM | +++ (IC50(off-target)/IC50(MKK4) > 100) | +++ (Ratio > 100) | +++ (Ratio > 100) | +++ (IC50(off-target)/IC50(MKK4) > 100) | +++ (IC50(off-target)/IC50(MKK4) > 100) |
| CCCS(=O)(=O)Nc1ccc(F)c(C(=O)c2c[nH]c3ncc(-c4ccc(C(=O)O)cc4)cc23)c1F [Example 108, 4-(3-(2,6-difluoro-3-(propylsulfonamido)benzoyl)-1H-pyrrolo[2,3-b]pyridin-5-yl)benzoic acid] | +++ (PoC < 1) | ++ (100 ≥ ratio > 10) | < 100 nM | ◯ (3 ≥ IC50(off-target)/IC50(MKK4)) | +++ (Ratio > 100) | +++ (Ratio > 100) | + (10 ≥ IC50(off-target)/IC50(MKK4) > 3) | +++ (IC50(off-target)/IC50(MKK4) > 100) |
| O=C(c1cccc(NS(=O)(=O)Cc2ccccc2)c1F)c1c[nH]c2ncc(-c3ccncc3)cc12 [Example 129, N-(2-fluoro-3-(5-(pyridin-4-yl)-1H-pyrrolo[2,3-b]pyridine-3-carbonyl)phenyl)-1-phenylmethanesulfonamide] | +++ (PoC < 1) | +++ (Ratio > 100) | 100 to 1000 nM | ++ (100 ≥ IC50(off-target)/IC50(MKK4) > 10) | +++ (Ratio > 100) | +++ (Ratio > 100) | + (10 ≥ IC50(off-target)/IC50(MKK4) > 3) | +++ (IC50(off-target)/IC50(MKK4) > 100) |
| CCCS(=O)(=O)Nc1ccc(F)c(C(=O)c2c[nH]c3ncc(-c4ccc(C(N)=O)cc4)cc23)c1F [Example 109, 4-(3-(2,6-difluoro-3-(propylsulfonamido)benzoyl)-1H-pyrrolo[2,3-b]pyridin-5-yl)benzamide] | +++ (PoC < 1) | + (10 ≥ ratio > 3) | 100 to 1000 nM | ◯ (3 ≥ IC50(off-target)/IC50(MKK4)) | +++ (Ratio > 100) | +++ (Ratio > 100) | + (10 ≥ IC50(off-target)/IC50(MKK4) > 3) | +++ (IC50(off-target)/IC50(MKK4) > 100) |
| COc1ccc(-c2cnc3[nH]cc(C(=O)c4ccc(F)c(NS(=O)(=O)CCC(F)(F)F)c4F)c3c2)cn1 [Example 158, N-(2,6-difluoro-3-(5-(6-methoxypyridin-3-yl)-1H-pyrrolo[2,3-b]pyridine-3-carbonyl)phenyl)-3,3,3-trifluoropropane-1-sulfonamide] | +++ (PoC < 1) | +++ (Ratio > 100) | < 100 nM | ++ (100 ≥ IC50(off-target)/IC50(MKK4) > 10) | +++ (Ratio > 100) | +++ (Ratio > 100) | +++ (IC50(off-target)/IC50(MKK4) > 100) | +++ (IC50(off-target)/IC50(MKK4) > 100) |
| CCCS(=O)(=O)Nc1ccc(F)c(C(=O)c2c[nH]c3ncc(-c4ccc(OC)c(OC)c4)cc23)c1F [Example 105, N-(3-(5-(3,4-dimethoxyphenyl)-1H-pyrrolo[2,3-b]pyridine-3-carbonyl)-2,4-difluorophenyl)propane-1-sulfonamide] | ++ (1 ≤ PoC < 3) | ◯ (3 ≥ Ratio) | 100 to 1000 nM | ◯ (3 ≥ IC50(off-target)/IC50(MKK4)) | ++ (100 ≥ ratio > 10) | ++ (100 ≥ ratio > 10) | ++ (100 ≥ IC50(off-target)/IC50(MKK4) > 10) | +++ (IC50(off-target)/IC50(MKK4) > 100) |
